Consider two compounds from paper PMC4992173, “Divergent synthesis and identification of the cellular targets of deoxyelephantopins” (Nature Communications, 2016).

This assay has as its target human PPARγ. Kind of assay: Gel-based PPARγ binding kinetics (Kitz and Wilson). To be noted: recombinant PPARγ, 10-60 min preincubation, 24c-Cy3 readout, n=3. The procedure:
Briefly, recombinant human PPARγ was pretreated with compounds at 20 μM concentration followed by the probe 24c-Cy3. […] Assuming covalent bond formation with PPARγ, we applied the method of Kitz and Wilson[52] to determine the kinetic values Ki and kinact for deoxyelephantopin and compound 19a (Supplementary Fig. 17). We observed clear time-dependent shift in half-maximal inhibitory concentration (IC50) values characteristic for an irreversible mode of binding.
Supplementary figure 17: Determination of the kinetic values Ki and kinact for 19a and DEP as binders to human PPARγ (n = 3).
Supplementary figure 18: F γ
24c-Cy3 after pretreatment with 10 mM IAA or DMSO. […]
for 30 min. at 37 °C under 5% CO2 atmosphere. Cells were washed one time with PBS and fixed with 4% paraformaldehyde for 20 min. at r.t. Coverslips were washed three times with PBS, one time with water and then mounted on a slide with ProLong Gold antifade mountant with DAPI (Life Technologies). Cells were visualized with an LSM 700 confocal microscope […]
Annexin V and PI staining for cell microscopy. […]
In situ labeling experiments. […] Gels were visualized at 625 nm using a Hitachi FMBIO II Multi-View fluorescence scanner, then […]
visualization were performed as described above. Images were quantified with ImageJ and kinetics values were calculated using GraphPad Prism (V6.03). […]

As to `C=C(C)C(=O)O[C@H]1CC2=C[C@H](C/C=C\[C@H]3OC(=O)C(=C)[C@H]13)OC2=O` [19a], the kinact/Ki is reported as 1,241 M^−1 min^−1. The value for `C=C(C)C(=O)O[C@H]1CC2=C[C@@H](C/C(C)=C/[C@H]3OC(=O)C(=C)[C@H]13)OC2=O` [deoxyelephantopin] was 680 M⁻¹ min⁻¹.
